Laboratory results: patent US10822337B2, “TGF-β inhibitorC” (Rigel Pharmaceuticals, Inc., priority 2015, dated 2020)
pIC50: −log10 of the molar value.

Tests used:
[1] = tested on: GDF8 signaling (GDF pSMAD, MPC11); test: AlphaScreen SureFire SMAD3 (p-Ser423/425) assay, inhibition of GDF8 signaling; type: cell-based; details: Mus musculus, MPC-11, p-SMAD-3 (Ser423/425) in cell lysate after GDF8 stimulation
From the text: (§1) Example 2: AlphaScreen® SureFire® SMAD3 (p-Ser423/425) Assay
(§2) The p-SMAD-3 (Ser423/425) SureFire® assay has been designed to measure the phosphorylation of endogenous cellular p-SMAD-3 (Ser423/425) in cell lysates and is a system for the screening of both modulators of receptor activation (e.g. agonists and antagonists) as well as agents acting intracellularly, such as small molecule inhibitors of upstream events. The assay will measure p-SMAD-3 (Ser423/425) activation by either cloned or endogenous receptors, and can be applied to primary cells.
(§3) 1× Lysis buffer: 1 ml of 5× Lysis buffer was diluted with 4 ml of sterile water. After dilution, excess 1× Lysis buffer can be frozen and thawed up to 5 times without loss in activity.
(§4) P-SMAD-3 (Ser423/425) SureFire® Assay Protocols
(§5) Step A: Preparation of Buffers
(§6) Activation buffer: The buffer was warmed slowly to 37° C. and gently mixed to re-suspend. Activation buffer can be stored at room temperature with no loss in activity.
(§7) Reaction buffer: The buffer was kept at 4° C. while in use.
(§8) AlphaScreen® Protein A IgG Kit: The kit was stored at 4° C. in the dark.
(§9) Reaction buffer+Activation buffer+AlphaScreen® Acceptor beads: Reaction buffer (40 parts), Activation Buffer (10 parts) and Acceptor beads (1 part) were mixed and the mixture was stored at room temperature and used the same day. Mixture was added to 384-well plates; excess mixturewas discarded.
(§10) Dilution buffer+AlphaScreen® Donor beads: Dilution buffer (20 parts) and Donor beads (1 part) were mixed and the mixture was stored at room temperature and used the same day. Excess mixture was discarded.
(§11) Assay control samples: After reconstitution in 250 μl of water, lysates were at −20° C. in single use aliquots.
(§12) Step B: Preparation of Samples and Cells
(§13) 96-well Assay Protocol for 293FT and RMS13 adherent cells can be carried out manually or in high throughput with liquid handling robots.
(§14) The cells (80 μL of cells for 96 well plates) were plated in collagen coated tissue culture plates in RPMI or FreeStyle medium (Invitrogen) and incubated overnight. For manual analysis, 6 plates for GDF8, 6 plates for TGFβ, and optionally 6 plates for Alk5ca(ALKS constitutively active) were used.
(§15) The compound dilution plates were prepared as follows: 12 μL of DMSO was transferred into first column of 96-well plate, and 16 μL of DMSO was transferred into columns 2-12 of the 96-well plate. 12 μL of compound solution was transferred into first column of the DMSO-containing 96-well plate. Three-fold dilution was performed up to column 10 of the DMSO-containing 96-well plate.
(§16) Step C: Treatment and Analysis
(§17) The plate containing cells were treated with compounds for about 10 minutes, and then ligand was added. GDF8 or TGFb was added to plates to stimulate. 293FL cells were stimulatedfor 90 minutes at 37° C.; and RMS13 cells were stimulated for 60 minutes at 37° C. The medium was then removed from the cells, and 1× Lysis Buffer (about 25 μL) was added and the plate was gently agitated on plate shaker for 5-10 minutes.
(§18) The lysate (5 μL) was then placed into 384-well shallow plates avoiding the generation of bubbles. To this, the Reaction Buffer+Activation Buffer+AlphaScreen® Acceptor beadsmixture (5 μL) was added. The plate was sealed with adhesive cover and shielded from light (e.g., with metal foil), and agitated gently on plate shaker for 2 hours at room temperature.
(§19) Dilution buffer+AlphaScreen® Donor beads (2 μL) was then added, and the plate was intubated on the plate shaker for an additional 1½ hours. After completion, the plate was read on Synergy-4 or Enspire plate reader, using AlphaScreen® pSMAD3® settings.
(§20) Representative results for inhibition of GDF8 (data=GDF pSMAD (MPC11) (μM)) and TGF-β (data=TGF-β pSMAD (MPC-11) (μM)) signaling are shown in Table 1: […]

[2] = tested on: TGF-β signaling (TGF-β pSMAD, MPC-11); test: AlphaScreen SureFire SMAD3 (p-Ser423/425) assay, inhibition of TGF-β signaling; type: cell-based; details: Mus musculus, p-SMAD-3 (Ser423/425) in cell lysate after TGF-β stimulation
From the text: as §1, §2, §3, §4, §5, §6, §7, §8, §9, §10, §11, §12, §13, §14, §15, §16, §17, §18, §19, §20

Row | SMILES | pIC50 [1] | pIC50 [2]
1 | Cc1cccc(-c2nn3c(c2-c2ccc4[nH]ncc4c2)OCCC3)c1 [Compound 40, 3-(1H-Indazol-5-yl)-2-(m-tolyl)-6,7-dihydro-5H-pyrazolo[5,1-b][1,3]oxazine] | 6.18 | 5.61
2 | Fc1cccc(-c2nn3c(c2-c2ccc4nccn4c2)CCC3)c1 [Compound 80, 6-(2-(3-Fluorophenyl)-5,6-dihydro-4H-pyrrolo[1,2-b]pyrazol-3-yl)imidazo[1,2-a]pyridine] | 6.12 | 5.53
3 | COc1cccc(-c2nn3c(c2-c2ccc4nccn4c2)OCC3)c1 [Compound 73, 7-(Imidazo[1,2-a]pyridin-6-yl)-6-(3-methoxyphenyl)-2,3-dihydropyrazolo[5,1-b]oxazole] | 6.48 | 5.83
4 | Cc1cc(-c2nn3c(c2-c2ccc4c(cnn4C)c2)CCC3)ccc1F [Compound 15, 5-(2-(4-Fluoro-3-methylphenyl)-5,6-dihydro-4H-pyrrolo[1,2-b]pyrazol-3-yl)-1-methyl-1H-indazole] | 6.01 | 5.56
5 | Clc1cccc(-c2nn3c(c2-c2ccc4[nH]ncc4c2)CCC3)c1 [Compound 22, 5-(2-(3-Chlorophenyl)-5,6-dihydro-4H-pyrrolo[1,2-b]pyrazol-3-yl)-1H-indazole] | 7.03 | 6.74
6 | COc1cccc(-c2nn3c(c2-c2ccc4nccn4c2)CCC3)c1 [Compound 21, 6-(2-(3-Methoxyphenyl)-5,6-dihydro-4H-pyrrolo[1,2-b]pyrazol-3-yl)imidazo[1,2-a]pyridine] | 6.51 | 5.98
7 | FC(F)(F)c1cccc(-c2nn3c(c2-c2ccc4nccnc4c2)OCC3)c1 [Compound 64, 7-(Quinoxalin-6-yl)-6-(3-trifluoromethylphenyl)-2,3-dihydropyrazolo[5,1-b]oxazole] | 6.47 | 5.83
8 | Fc1ccc(-c2nn3c(c2-c2ccc4cn[nH]c4c2)OCC3)cc1 [Compound 65, 6-(4-Fluorophenyl)-7-(1H-indazol-6-yl)-2,3-dihydropyrazolo[5,1-b]oxazole] | 6.85 | 6.05
9 | Clc1cccc(-c2nn3c(c2-c2ccc4ncsc4c2)CCC3)c1 [Compound 26, 6-(2-(3-Chlorophenyl)-5,6-dihydro-4H-pyrrolo[1,2-b]pyrazol-3-yl)benzo[d]thiazole] | 7.17 | 6.88
10 | COc1cccc(-c2nn3c(c2-c2ccc4ncn(C)c4c2)OCC3)c1 [Compound 72, 6-(3-Methoxyphenyl)-7-(1-methyl-1H-benzo[d]imidazol-6-yl)-2,3-dihydropyrazolo[5,1-b]oxazole] | 6.63 | 6.18
11 | Cc1cccc(-c2nn3c(c2-c2ccc4ncsc4c2)CCC3)c1 [Compound 12, 6-(2-(m-Tolyl)-5,6-dihydro-4H-pyrrolo[1,2-b]pyrazol-3-yl)benzo[d]thiazole] | 7.33 | 6.93
12 | Fc1ccc(-c2nn3c(c2-c2ccc4ncccc4c2)OCC3)cc1 [Compound 69, 6-(4-Fluorophenyl)-7-(quinolin-6-yl)-2,3-dihydropyrazolo[5,1-b]oxazole] | 5.90 | 5.11
13 | FC(F)(F)c1cccc(-c2nn3c(c2-c2ccc4[nH]ncc4c2)CCC3)c1 [Compound 31, 5-(2-(3-Trifluoromethylphenyl)-5,6-dihydro-4H-pyrrolo[1,2-b]pyrazol-3-yl)-1H-indazole] | 7.29 | 6.77

Further lines, results first:

Row | pIC50 [1] | pIC50 [2] | SMILES
14 | 7.35 | 6.85 | Cc1cc(-c2nn3c(c2-c2ccc4[nH]ncc4c2)CCC3)ccc1F [Compound 2, 5-(2-(4-Fluoro-3-methylphenyl)-5,6-dihydro-4H-pyrrolo[1,2-b]pyrazol-3-yl)-1H-indazole]
15 | 6.37 | 5.86 | COc1cnc2ccc(-c3c(-c4cc(F)ccc4F)nn4c3CCC4)cc2n1 [Compound 199, 7-(2-(2,5-difluorophenyl)-5,6-dihydro-4H-pyrrolo[1,2-b]pyrazol-3-yl)-2-methoxyquinoxaline]
16 | 7.19 | 6.88 | Cc1cc(-c2nn3c(c2-c2ccc4ncn(C)c4c2)CCC3)ccc1F [Compound 16, 6-(2-(4-Fluoro-3-methylphenyl)-5,6-dihydro-4H-pyrrolo[1,2-b]pyrazol-3-yl)-1-methyl-1H-benzo[d]imidazole]
17 | 6.76 | 6.28 | Cc1cc(-c2nn3c(c2-c2ccc4nccnc4c2)CCC3)ccc1F [Compound 55, 6-(2-(4-Fluoro-3-methylphenyl)-5,6-dihydro-4H-pyrrolo[1,2-b]pyrazol-3-yl)quinoxaline]
18 | 6.69 | 6.16 | Fc1ccc(-c2nn3c(c2-c2ccc4nccnc4c2)CCC3)cc1Cl [Compound 147, 6-(2-(3-Chloro-4-fluorophenyl)-5,6-dihydro-4H-pyrrolo[1,2-b]pyrazol-3-yl)quinoxaline]
19 | 6.65 | 5.84 | Fc1ccccc1-c1nn2c(c1-c1ccc3ncsc3c1)CCC2 [Compound 201, 6-(2-(2-fluorophenyl)-5,6-dihydro-4H-pyrrolo[1,2-b]pyrazol-3-yl)benzo[d]thiazole]
20 | 6.33 | 5.78 | Cc1cc(-c2nn3c(c2-c2ccc4ncccc4c2)CCC3)c(F)cc1F [Compound 183, 6-(2-(2,4-Difluoro-5-methylphenyl)-5,6-dihydro-4H-pyrrolo[1,2-b]pyrazol-3-yl)quinoline]
21 | 5.98 | 5.02 | Fc1ccc(-c2nn3c(c2-c2ccc4ncccc4c2)CCC3)cc1F [Compound 88, 6-(2-(3,4-Difluorophenyl)-5,6-dihydro-4H-pyrrolo[1,2-b]pyrazol-3-yl)quinoline]
22 | 6.26 | 5.75 | Fc1ccc(-c2nn3c(c2-c2ccc4nccnc4c2)CCC3)cc1OC(F)(F)F [Compound 153, 6-(2-(4-Fluoro-3-trifluoromethoxyphenyl)-5,6-dihydro-4H-pyrrolo[1,2-b]pyrazol-3-yl)quinoxaline]
23 | 6.43 | 6.06 | COc1cccc(-c2nn3c(c2-c2ccc4nccnc4c2)CCC3)c1 [Compound 56, 6-(2-(3-Methoxyphenyl)-5,6-dihydro-4H-pyrrolo[1,2-b]pyrazol-3-yl)quinoxaline]
24 | 6.54 | 6.02 | Fc1ccc(-c2nn3c(c2-c2ccc4ncsc4c2)CCC3)c(F)c1F [Compound 131, 6-(2-(2,3,4-Trifluorophenyl)-5,6-dihydro-4H-pyrrolo[1,2-b]pyrazol-3-yl)benzo[d]thiazole]
25 | 6.16 | 5.38 | COc1ccc(-c2nn3c(c2-c2ccc4nccnc4c2)CCC3)cc1 [Compound 102, 6-(2-(4-Methoxyphenyl)-5,6-dihydro-4H-pyrrolo[1,2-b]pyrazol-3-yl)quinoxaline]
26 | 6.86 | 6.52 | Cc1cc(-c2nn3c(c2-c2ccc4nccnc4c2)CCC3)c(F)cc1F [Compound 184, 6-(2-(2,4-Difluoro-5-methylphenyl)-5,6-dihydro-4H-pyrrolo[1,2-b]pyrazol-3-yl)quinoxaline]
27 | 6.38 | 6.10 | Cc1c(F)ccc(-c2nn3c(c2-c2ccc4cn[nH]c4c2)CCC3)c1F [Compound 168, 6-(2-(2,4-Difluoro-3-methylphenyl)-5,6-dihydro-4H-pyrrolo[1,2-b]pyrazol-3-yl)-1H-indazole]
28 | 6.23 | 5.76 | Cc1cc(-c2nn3c(c2-c2ccc4cn[nH]c4c2)CCC3)c(F)cc1F [Compound 180, 6-(2-(2,4-Difluoro-5-methylphenyl)-5,6-dihydro-4H-pyrrolo[1,2-b]pyrazol-3-yl)-1H-indazole]
